Measurements: ChEMBL document CHEMBL1201862, “PubChem BioAssay data set” (2004)
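Step 1: Grow cells in 96-well plates. Step 2: Expose to compound for 48 hours at 5 concentrations. Step 3: Interpolate endpoints linearly; if unreached, use highest concentration. GI50 marks 50% less growth.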 Activity calls are given as the source filed them. Rule as the data show it: active = GI50 up to about 1.1 µM and inactive = higher.

Experiments:
Experiment in all cases: NCI anticancer screen, dose series, 48 h
T47D = test system: T47D
ACHN = test system: ACHN
SNB-19 = test system: SNB-19
MDA-MB-435 = test system: MDA-MB-435
SK-MEL-2 = test system: SK-MEL-2
BT-549 = test system: BT-549
PC-3 = test system: PC-3
NCI/ADR-RES = test system: NCI/ADR-RES
HCT-116 = test system: HCT-116
EKVX = test system: EKVX
KM12 = test system: KM12
CAKI-1 = test system: CAKI-1
COLO 205 = test system: COLO 205
SF-295 = test system: SF-295
SN12C = test system: SN12C
HT-29 = test system: HT-29
IGROV-1 = test system: IGROV-1
MCF7 = test system: MCF7
NCI-H23 = test system: NCI-H23
A498 = test system: A498

Row | SMILES | GI50 (T47D) | GI50 (ACHN) | GI50 (SNB-19) | GI50 (MDA-MB-435) | GI50 (SK-MEL-2) | GI50 (BT-549) | GI50 (PC-3) | GI50 (NCI/ADR-RES) | GI50 (HCT-116) | GI50 (EKVX) | GI50 (KM12) | GI50 (CAKI-1) | GI50 (COLO 205) | GI50 (SF-295) | GI50 (SN12C) | GI50 (HT-29) | GI50 (IGROV-1) | GI50 (MCF7) | GI50 (NCI-H23) | GI50 (A498)
1 | CC(=O)OCc1ccc2oc(=O)c(C(=O)Oc3cccc(Cl)c3)cc2c1 | 20.6 µM (inactive) | 38.2 µM (inactive) | 83 µM (inactive) | 64.4 µM (inactive) | 82.4 µM (inactive) | > 100 µM (inactive) | 19.1 µM (inactive) | > 100 µM (inactive) | 21.2 µM (inactive) | > 100 µM (inactive) | 61.5 µM (inactive) | 42.9 µM (inactive) | 30.3 µM (inactive) | > 100 µM (inactive) | 54.5 µM (inactive) | 27.5 µM (inactive) | 63.5 µM (inactive) | 26.2 µM (inactive) | 74.6 µM (inactive) | 
2 | CC(=O)c1cccc(NC2C(N)C(NC(=O)N(C)C)(C(C)O)C(C)(O)C2(O)COC(=O)c2c(C)cccc2O)c1 (configuration not stated) | < 0.001 µM (active) | < 0.001 µM (active) | < 0.001 µM (active) | < 0.001 µM (active) | 0.01 µM (active) | < 0.001 µM (active) |  | 0.0134 µM (active) | < 0.001 µM (active) | < 0.001 µM (active) | < 0.001 µM (active) | < 0.001 µM (active) | < 0.001 µM (active) | 0.00107 µM (active) | < 0.001 µM (active) | < 0.001 µM (active) | < 0.001 µM (active) | < 0.001 µM (active) | < 0.001 µM (active) | < 0.001 µM (active)
3 | c1ccc2c(-c3csc(-c4c[nH]c5ccccc45)n3)c[nH]c2c1 |  | > 100 µM (inactive) | > 89.7 µM (inactive) | 35.8 µM (inactive) | > 100 µM (inactive) | > 100 µM (inactive) | > 100 µM (inactive) | > 100 µM (inactive) | > 48.8 µM (inactive) | > 100 µM (inactive) | 14.9 µM (inactive) | > 100 µM (inactive) |  | 15.4 µM (inactive) | > 100 µM (inactive) | 39.4 µM (inactive) | > 28.5 µM (inactive) | > 52.1 µM (inactive) | > 100 µM (inactive) | > 100 µM (inactive)
4 | CC(C)CCC[C@@H](C)[C@H]1CC[C@H]2[C@@H]3CC=C4C[C@@H](OC(=O)c5cccc6c(=O)c7ccccc7[nH]c56)CC[C@]4(C)[C@H]3CC[C@]12C | > 75 µM (inactive) | > 75 µM (inactive) | > 75 µM (inactive) | > 75 µM (inactive) | > 75 µM (inactive) | > 75 µM (inactive) | > 75 µM (inactive) | > 75 µM (inactive) |  | > 75 µM (inactive) | > 75 µM (inactive) |  | > 75 µM (inactive) | > 75 µM (inactive) | 1.92 µM (inactive) | > 75 µM (inactive) | > 75 µM (inactive) | > 75 µM (inactive) | > 75 µM (inactive) | > 75 µM (inactive)
5 | COC(=O)CCCc1ccc2c(c1)CCC2 | > 100 µM (inactive) | > 100 µM (inactive) | > 100 µM (inactive) | > 100 µM (inactive) | > 100 µM (inactive) | > 100 µM (inactive) | > 100 µM (inactive) | > 100 µM (inactive) | > 100 µM (inactive) |  | > 100 µM (inactive) | > 100 µM (inactive) | > 100 µM (inactive) | > 100 µM (inactive) | > 100 µM (inactive) |  | > 100 µM (inactive) | > 100 µM (inactive) | > 100 µM (inactive) | 
6 | O=C1c2ccccc2C(=O)c2c(NCC3CO3)ccc(NCC3CO3)c21 (configuration not stated) | 4.2 µM (inactive) | 0.303 µM (active) | 15.1 µM (inactive) | 1.22 µM (inactive) |  | 3.15 µM (inactive) | 1.91 µM (inactive) | 1.6 µM (inactive) | 0.171 µM (active) | > 32.2 µM (inactive) | 3.85 µM (inactive) | 0.687 µM (active) | 4.99 µM (inactive) | 3.59 µM (inactive) | 0.456 µM (active) | 1.88 µM (inactive) | 3.78 µM (inactive) | 0.112 µM (active) | 1.49 µM (inactive) | 33.3 µM (inactive)
7 | O=NC1c2cccc3cccc(c23)C1N=O (configuration not stated) | 17 µM (inactive) | 1.72 µM (inactive) | 11.8 µM (inactive) | 4.78 µM (inactive) |  | 4.21 µM (inactive) | 10.1 µM (inactive) | 2.39 µM (inactive) | 1.34 µM (inactive) | 2.58 µM (inactive) | 3.89 µM (inactive) | 2.77 µM (inactive) | 3.17 µM (inactive) | 9.31 µM (inactive) |  | 10.9 µM (inactive) | 1.08 µM (active) | 7.93 µM (inactive) | 8.87 µM (inactive) | 17.5 µM (inactive)
8 | COC(=O)C1(C(=O)OC)CC2=C(S(=O)(=O)c3ccccc3)C[C@@H](C#N)[C@H]2C1 |  | > 100 µM (inactive) | > 100 µM (inactive) | > 100 µM (inactive) | > 100 µM (inactive) | 71.8 µM (inactive) | > 100 µM (inactive) | > 100 µM (inactive) | > 100 µM (inactive) | > 100 µM (inactive) | > 100 µM (inactive) | > 100 µM (inactive) | > 100 µM (inactive) | > 100 µM (inactive) | > 100 µM (inactive) | > 100 µM (inactive) | 52 µM (inactive) | 47.5 µM (inactive) | > 100 µM (inactive) | > 100 µM (inactive)
9 | CCSCCCSCCSCC | > 100 µM (inactive) |  | > 100 µM (inactive) | > 100 µM (inactive) |  | > 100 µM (inactive) | > 100 µM (inactive) |  | > 100 µM (inactive) | > 100 µM (inactive) | > 100 µM (inactive) |  | > 100 µM (inactive) | > 100 µM (inactive) | > 100 µM (inactive) | > 100 µM (inactive) | > 100 µM (inactive) | > 100 µM (inactive) | > 100 µM (inactive) | 
10 | CN(C)CCS/C(=N\c1ccccc1)N1C=COC=C1 | 15.3 µM (inactive) | 34.1 µM (inactive) | > 100 µM (inactive) | 18.9 µM (inactive) | 17.3 µM (inactive) | > 100 µM (inactive) | 34.4 µM (inactive) |  | 23.6 µM (inactive) | 86.1 µM (inactive) | 57.4 µM (inactive) | > 33.3 µM (inactive) | 27.2 µM (inactive) | 99.8 µM (inactive) | 27.5 µM (inactive) | 43.7 µM (inactive) | 18 µM (inactive) | 17.9 µM (inactive) | 25.8 µM (inactive) | > 100 µM (inactive)
11 | CC(=O)Oc1ccc2cc(Oc3cc(Cl)c(Cl)cc3Cl)c(=O)oc2c1 | 27.2 µM (inactive) | 22.9 µM (inactive) | 29.6 µM (inactive) |  |  | 13.1 µM (inactive) | 16.1 µM (inactive) |  | 14.9 µM (inactive) | 24.4 µM (inactive) | 13 µM (inactive) | 18 µM (inactive) |  | 22.4 µM (inactive) | 14.6 µM (inactive) | 16.8 µM (inactive) | 11.2 µM (inactive) | 24.2 µM (inactive) | 22.2 µM (inactive) | 17.7 µM (inactive)
12 | FC(F)(F)c1ccc2nc(Sc3ccc4ccccc4c3)cnc2c1 | 23.1 µM (inactive) | > 100 µM (inactive) | > 100 µM (inactive) | 55.2 µM (inactive) | 23.1 µM (inactive) | > 100 µM (inactive) |  | 60 µM (inactive) | 46 µM (inactive) | 94 µM (inactive) | > 100 µM (inactive) | 50.2 µM (inactive) | 75 µM (inactive) | 65.2 µM (inactive) | 73.8 µM (inactive) | 87.3 µM (inactive) | > 100 µM (inactive) | 45 µM (inactive) | 41.9 µM (inactive) | 28.6 µM (inactive)
13 | CN1CCN(c2ccc(-n3cc(C(=O)O)c(=O)c4cc(F)c(N5CCN(C)CC5)cc43)nc2)CC1 | > 100 µM (inactive) |  | > 100 µM (inactive) | > 100 µM (inactive) |  | 80 µM (inactive) | > 100 µM (inactive) | > 100 µM (inactive) | 69.3 µM (inactive) | > 100 µM (inactive) | 33.6 µM (inactive) | > 100 µM (inactive) | 25.4 µM (inactive) | > 100 µM (inactive) | > 100 µM (inactive) | 65.5 µM (inactive) | > 100 µM (inactive) | > 100 µM (inactive) | > 100 µM (inactive) | > 100 µM (inactive)
14 | CC[n+]1[b-](C(C)(C)C)n(/N=C/C(C)(C)C)[b-](C(C)(C)C)[n+]1CC | > 100 µM (inactive) | > 100 µM (inactive) | > 100 µM (inactive) | > 100 µM (inactive) | 70.3 µM (inactive) | > 100 µM (inactive) | > 100 µM (inactive) | > 100 µM (inactive) | > 100 µM (inactive) | > 100 µM (inactive) | > 100 µM (inactive) | > 100 µM (inactive) | > 100 µM (inactive) | > 100 µM (inactive) | > 100 µM (inactive) | > 100 µM (inactive) | > 100 µM (inactive) | > 100 µM (inactive) | > 100 µM (inactive) | 
15 | COc1cc(/C=C2/C[C@H]3[C@@H]4CC=C5C[C@@H](OC(C)=O)CC[C@]5(C)[C@H]4CC[C@]3(C)NC2=O)cc(OC)c1OC | 22 µM (inactive) | 19.1 µM (inactive) | 15.9 µM (inactive) | 36.3 µM (inactive) | 18.7 µM (inactive) | 22.5 µM (inactive) | 19 µM (inactive) | 20 µM (inactive) | 26.4 µM (inactive) | 26.6 µM (inactive) | 47.4 µM (inactive) | 29.5 µM (inactive) | > 100 µM (inactive) | 26.8 µM (inactive) | 29.6 µM (inactive) | 38.7 µM (inactive) | 30 µM (inactive) | 25.4 µM (inactive) | 23.9 µM (inactive) | 
